Like-named read-outs stand apart in the source and are kept apart here.
Key:
[1] = molecular target: T1, pirin protein in SK-OV-3 human ovarian cancer cells (Homo sapiens, UniProt O00625); assay: Pirin depletion in SK-OV-3 cells (immunoblot / capillary electrophoresis immunoassay); type: cell-based; details: SK-OV-3 cells
T1 construct: endogenous in cells; host or cells: SK-OV-3
T1 sequence (O00625 1-290): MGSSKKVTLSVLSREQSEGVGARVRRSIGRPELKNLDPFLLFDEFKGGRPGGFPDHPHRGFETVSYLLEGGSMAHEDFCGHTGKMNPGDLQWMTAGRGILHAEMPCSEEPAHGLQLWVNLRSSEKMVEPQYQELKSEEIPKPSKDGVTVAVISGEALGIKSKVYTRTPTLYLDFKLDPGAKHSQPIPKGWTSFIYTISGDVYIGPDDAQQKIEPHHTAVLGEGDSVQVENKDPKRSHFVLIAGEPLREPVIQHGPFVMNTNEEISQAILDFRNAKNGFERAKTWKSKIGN
Procedure: in vivo in athymic mice to increase its tumorigenicity and reliability as a xenograft, and used within 10 passages of banked stocks.
Prior to use, the cells were analyzed by short tandem repeat (STR) profiling. Polymorphic STR loci were amplified using a polymerase chain reaction (PCR) primer set. The PCR product (each locus being labelled with a different fluorophore) was analyzed simultaneously with size standards using automated fluorescent detection. The number of repeats at 10 different loci (as recommended by the American Type Culture Collection, ATCC) was used to define the STR profile and this was cross-referenced with online databases to confirm authenticity. […]
the ATCC reference line (LGC Promochem, UK). […]
nested PCR protocol (Venor GeM kit, Minerva Biolabs, Germany). Cells were grown in DMEM/10 % FCS, 2 mM glutamine and nonessential amino acids in 5 % CO2.
SK-OV-3 cells were treated as for each experimental condition. Cells were harvested and lysed by scraping in urea lysis buffer (20 mM HEPES pH 8.0, 9 M urea, 1 mM sodium orthovanadate, 2.5 mM sodium pyrophosphate, 1 mM β-glycerophosphate). […]
of samples was determined using a bicinchoninic acid (BCA) protein assay kit (Thermo Fisher Scientific). Western blotting was carried out as previously described.10 Pirin and GAPDH antibodies were obtained from Abcam (ab157212) and Merck […]
Samples were treated, harvested and lysed as described above. A total of 5 μL of 0.2 mg/mL protein was loaded into plates and capillary western analysis was carried out according to the manufacturer’s instructions (ProteinSimple WES). The data was analyzed with the Compass software (ProteinSimple).
Sigma-Aldrich and Cell Signaling Technology, respectively.
10 Sharp SY, Boxall K, Rowlands M, Prodromou C, Roe SM, Maloney A, Powers M, Clarke PA, Box G, Sanderson S, Patterson L, Matthews TP, Cheung KM, Ball K, Hayes A, Raynaud F, Marais R, Pearl L, Eccles S, Aherne W, McDonald E, Workman P. In vitro biological characterization of a novel, synthetic diaryl pyrazole resorcinol class of heat shock protein 90 inhibitors.

pirin = molecular target: T2, pirin (Homo sapiens, UniProt O00625); assay: Pirin SPR (surface plasmon resonance) binding
T2 sequence (O00625 1-290): T1 sequence (O00625 1-290)

CRBN-DDB1 complex = molecular target: T3, CRBN-DDB1 complex (Homo sapiens, UniProt Q96SW2); assay: CRBN/DDB1 fluorescence polarization competition assay; type: binding
T3 construct: His6-ZZ-HRV3C (N); made in house; host or cells: Sf9 insect cells (baculovirus co-infection)
Procedure: CRBN/DDB1 Fluorescence Polarization Assay […]
Unless otherwise stated, the aqueous assay buffer contained 0.02 M HEPES((4-(2-hydroxyethyl)-1-piperazineethanesulfonic acid)) pH 8.0, 0.15 M NaCl, 0.5 mM TCEP ((tris(2-carboxyethyl)phosphine)), 0.05% Tween 20. The assay was conducted using 384 well black plates (ProxiPlate F Plus, Perkin-Elmer, Massachusetts, USA).
Plate Reader. […] Fluorescence […]
polarization was measured in units of millipolarization (mP) and are background corrected. Data were plotted and analyzed using […]
All experiments were performed in triplicate unless otherwise stated. Values are quoted as the geometric […]
Each graph is a representative example of a single biological repeat unless otherwise stated.
CRBN/DDB1 Protein Expression & Purification
Protein expression and purification methods adapted from Lopez-Girona et al.5 Full length human CRBN (accession number NM016302) was amplified by PCR & inserted downstream of the polyhedrin promoter of a pFBDM expression vector which had been modified to introduce a N-terminal His6-ZZ-HRV3C tag. Full length human DDB1 (accession number NM001923) was amplified by PCR with primers which introduced a C-terminal StrepTag and inserted downstream of the p10 promoter of a separate pFBDM expression vector. Baculoviruses were generated according to Bac-to-Bac protocols (Invitrogen) and used to co-infect Sf9 cells grown @ 27 °C in shaker flasks using Insect-XPRESS media (Lonza). Cells were harvested 48 hours post infection and frozen. For purification, pellets were thawed & resuspended in 5 volumes of Histrap buffer A (see below) and lysed […]
Superdex 200 (HiLoad 26/600), ResourceQ (6 mL) and finally a second Superdex 200 (HiLoad 26/600) column. All columns were from GE Healthcare and all purification steps were performed @ 4 °C. HisTrap buffer A: 50mM Tris (2-Amino-2-(hydroxymethyl)propane-1,3-diol), 500mM NaCl, 0.5mM TCEP ((tris(2-carboxyethyl)phosphine), 5% glycerol, pH 8.0. HisTrap Buffer B: + 250 mM imidazole. Superdex 200 buffer: 50mM Tris, 200mM NaCl, 0.5mM TCEP, 5% glycerol, pH 8.0. Resource Q buffer A: 50mM Tris, 0.5mM TCEP, 5% Glycerol, pH8.0. Resource Q buffer B + 1M NaCl.
California, USA) to prepare CRBN/DDB1 concentrations from 0.1 to 500 nM in 10 µL final assay volume containing 5 nM FP- […]
point prior to analysis. The KD was calculated using non-linear regression and a one-site specific binding model.
Analysis of competition assay FP-probe bound fraction […]
fb=probe bound fraction, KD=probe dissociation constant, L0=probe concentration, R0=protein concentration, Ki=ligand […]
CRBN/DDB1 Competition Assay
Compounds as solutions in DMSO were dispensed using an ECHO 550 Liquid Handler (Labcyte Inc).
Tracer controls (5 nM FP-probe S18 assay buffer only) and bound tracer controls (5 nM and 80 nM CRBN/DDB1) were included on each assay plate . Plates were incubated overnight at 4 °C before warming to room temperature and fluorescence polarization measured using an EnVision plate reader (Perkin -Elmer, Massachusetts, USA). IC 50 values […]
Table S2. CRBN/DDB1 Control Compounds

In the case of O=C1CCC(N2C(=O)c3cccc(OCCOCCOCCN4CCN(Cc5ccc6cc(C(=O)Nc7cc(NC(=O)c8ccc9c(c8)OCCO9)ccc7Cl)ccc6n5)CC4)c3C2=O)C(=O)N1 (centres unmarked) [PDP 16, N-(2-Chloro-5-(2,3-dihydrobenzo[b][1,4]dioxine-6-carboxamido)phenyl)-2-((4-(2-(2-(2-((2-(2,6-dioxopiperidin-3-yl)-1,3-dioxoisoindolin-4-yl)oxy)ethoxy)ethoxy)ethyl)piperazin-1-yl)methyl)quinoline-6-carboxamide], the Pirin degradation ([1]; 50 nM, 2 h exposure, Figure 3A) is reported as “near complete pirin degradation”, the “Concentration-response shape with increasing concentration” value ([1]; 50 to 1500 nM, up to 24 h) is reported as “clear hook effect” and the “Lowest concentration with pirin degradation activity” value ([1]; 2 h exposure, Figure 3B) is reported as 0.5 nM. For the same compound, the Kd (pirin; Pirin SPR KD, equilibrium analysis, one site specific binding model, geometric mean n = 3) was 55 nM, the Kd (pirin; Pirin SPR KD, representative single repeat, best-fit value, one site specific binding) was 56.3 nM and the Kd (pirin; Pirin SPR pKD, mean of 3 values (unrounded), column statistics) was 54.5 nM. The “Increase in affinity for recombinant pirin compared to PDP 10” value (pirin; SPR) was 4.2 fold, the “Measured Rmax/Theoretical Rmax” value (pirin; SPR) was 0.39 and the IC50 (CRBN-DDB1 complex; CRBN/DDB1 FP IC50, single repeat N=2, best-fit value, variable slope four parameters) was 323 nM. It also gave an IC50 (CRBN-DDB1 complex; best-fit value, variable slope four parameters, read-out: CRBN/DDB1 FP IC50, single repeat N=1) of 715 nM, an IC50 (CRBN-DDB1 complex; best-fit value, variable slope four parameters, read-out: CRBN/DDB1 FP IC50, single repeat N=3) of 519 nM and a Ki (CRBN-DDB1 complex; calculated from geometric mean CRBN-DDB1 IC50 and FP-probe KD) of 120 nM. For the same compound, the IC50 (CRBN-DDB1 complex; column statistics, read-out: CRBN/DDB1 FP pIC50, mean of 3 values (unrounded) (converted)) was 493 nM and the IC50 (CRBN-DDB1 complex; displacement of thalidomide derived fluorescent probe, geometric mean n = 3, read-out: CRBN/DDB1 FP IC50) was 490 nM.

— PMC5815658 (Journal of Medicinal Chemistry, 2017)
